A value given as a limit tells only on which side of the number the result lay.

By IC50 is commonly meant the midpoint of a concentration-inhibition curve.

For one assay, the target named is recombinant human baculovirus-expressed AXL (Homo sapiens (Human), UniProt P30530). Description: AXL kinase assay (HTRF KinEASE). In kind it is biochemical. As to conditions: average of two or more determinations. A general note: TR-FRET usually uses a lanthanide donor and a delayed reading to cut background.
Take “1-Ethyl-3-(4-fluoro-phenyl)-2,4-dioxo-1,2,3,4-tetrahydro-pyrimidine-5-carboxylic acid {3-fluoro-4-[6-(1H-pyrazol-3-yl)-pyrazolo[1,5-a]pyridin-4-yloxy]-phenyl}-amide [Example 40]”: the IC50 is less than 10 nM. Same read-out and setting: the result for `O=C(Nc1ccc(Oc2cc(-c3cccnc3)cn3nccc23)c(F)c1)c1cccn(-c2ccc(F)cc2)c1=O` [Example 25, 1-(4-Fluoro-phenyl)-2-oxo-1,2-dihydro-pyridine-3-carboxylic acid 3-fluoro-4-(6-pyridin-3-yl-pyrazolo[1,5-a]pyridin-4-yloxy)-phenyl-amide] reads less than 10 nM; that for `O=C(Nc1ccc(Oc2cc(-c3ccc(N4CCOCC4)nc3)cn3nccc23)c(F)c1)c1cccn(-c2ccc(F)cc2)c1=O` [Example 26, 1-(4-Fluoro-phenyl)-2-oxo-1,2-dihydro-pyridine-3-carboxylic acid {3-fluoro-4-[6-(6-morpholin-4-yl-pyridin-3-yl)-pyrazolo[1,5-a]pyridin-4-yloxy]-phenyl}-amide], less than 10 nM.

Another assay deals with recombinant human baculovirus-expressed cMET (Homo sapiens (Human), UniProt P08581). Kind of assay: c-MET kinase assay (HTRF KinEASE). In kind it is biochemical. As to conditions: average of two or more determinations; read-out: c-MET IC50.
As to “1-Ethyl-3-(4-fluoro-phenyl)-2,4-dioxo-1,2,3,4-tetrahydro-pyrimidine-5-carboxylic acid {3-fluoro-4-[6-(1H-pyrazol-3-yl)-pyrazolo[1,5-a]pyridin-4-yloxy]-phenyl}-amide [Example 40]”, the IC50 is less than 10 nM. As for `O=C(Nc1ccc(Oc2cc(-c3cccnc3)cn3nccc23)c(F)c1)c1cccn(-c2ccc(F)cc2)c1=O` [Example 25, 1-(4-Fluoro-phenyl)-2-oxo-1,2-dihydro-pyridine-3-carboxylic acid 3-fluoro-4-(6-pyridin-3-yl-pyrazolo[1,5-a]pyridin-4-yloxy)-phenyl-amide], the IC50 was less than 10 nM. Still for that read-out and setting: the result for `O=C(Nc1ccc(Oc2cc(-c3ccc(N4CCOCC4)nc3)cn3nccc23)c(F)c1)c1cccn(-c2ccc(F)cc2)c1=O` [Example 26, 1-(4-Fluoro-phenyl)-2-oxo-1,2-dihydro-pyridine-3-carboxylic acid {3-fluoro-4-[6-(6-morpholin-4-yl-pyridin-3-yl)-pyrazolo[1,5-a]pyridin-4-yloxy]-phenyl}-amide] reads less than 10 nM; that for `CCCCCn1cc(C(=O)Nc2ccc(Oc3cc(-c4cn(C)cn4)cn4nccc34)c(F)c2)c(=O)n(-c2ccc(F)cc2)c1=O` [Example 123, 3-(4-Fluoro-phenyl)-2,4-dioxo-1-pentyl-1,2,3,4-tetrahydro-pyrimidine-5-carboxylic acid{3-fluoro-4-[6-(1-methyl-1H-imidazol-4-yl)-pyrazolo[1,5-a]pyridin-4-yloxy]-phenyl}-amide], less than 10 nM.

On to `CCn1cc(C(=O)Nc2ccc(Oc3cc(-c4cn(C)cn4)cn4nccc34)c(C(F)(F)F)c2)c(=O)n(-c2ccc(F)cc2)c1=O` [Example 125, 1-Ethyl-3-(4-fluoro-phenyl)-2,4-dioxo-1,2,3,4-tetrahydro-pyrimidine-5-carboxylic acid {4-[6-(1-methyl-1H-imidazol-4-yl)-pyrazolo[1,5-a]pyridin-4-yloxy]-3-trifluoromethyl-phenyl}-amide], for which the IC50 is less than 10 nM.

Take `CC(C)n1cc(C(=O)Nc2ccc(Oc3cc(-c4cn(C)cn4)cn4nccc34)c(C(F)(F)F)c2)c(=O)n(-c2ccc(F)cc2)c1=O` [Example 126, 3-(4-Fluoro-phenyl)-1-isopropyl-2,4-dioxo-1,2,3,4-tetrahydro-pyrimidine-5-carboxylic acid{4-[6-(1-methyl-1H-imidazol-4-yl)-pyrazolo[1,5-a]pyridin-4-yloxy]-3-trifluoromethyl-phenyl}-amide]: the IC50 was in the range of 10 to 100 nM.

With `CCn1nc(C(=O)Nc2ccc(Oc3cc(-c4cn(C)cn4)cn4nccc34)cn2)c(=O)n(-c2ccc(F)cc2)c1=O` [Example 130, 2-Ethyl-4-(4-fluoro-phenyl)-3,5-dioxo-2,3,4,5-tetrahydro-1,2,4-triazine-6-carboxylic acid{5-[6-(1-methyl-1H-imidazol-4-yl)-pyrazolo[1,5-a]pyridin-4-yloxy]-pyridin-2-yl}-amide], the IC50 is less than 10 nM.

Turning to `CC(C)n1nc(C(=O)Nc2ccc(Oc3cc(-c4cn(C)cn4)cn4nccc34)cn2)c(=O)n(-c2ccc(F)cc2)c1=O` [Example 131, 4-(4-Fluoro-phenyl)-2-isopropyl-3,5-dioxo-2,3,4,5-tetrahydro-1,2,4-triazine-6-carboxylic acid{5-[6-(1-methyl-1H-imidazol-4-yl)-pyrazolo[1,5-a]pyridin-4-yloxy]-pyridin-2-yl}-amide], the IC50 is less than 10 nM. Regarding `CCn1cc(C(=O)Nc2ccc(Oc3cc(-c4ncccn4)cn4nccc34)c(F)c2)c(=O)n(-c2ccc(F)cc2)c1=O` [Example 132, 1-Ethyl-3-(4-fluoro-phenyl)-2,4-dioxo-1,2,3,4-tetrahydro-pyrimidine-5-carboxylic acid [3-fluoro-4-(6-pyrimidin-2-yl-pyrazolo[1,5-a]pyridin-4-yloxy)-phenyl]-amide], the IC50 is 10 to 100 nM. In the case of `CC(C)n1cc(C(=O)Nc2ccc(Oc3cc(-c4ncccn4)cn4nccc34)c(F)c2)c(=O)n(-c2ccc(F)cc2)c1=O` [Example 133, 3-(4-Fluoro-phenyl)-1-isopropyl-2,4-dioxo-1,2,3,4-tetrahydro-pyrimidine-5-carboxylic acid[3-fluoro-4-(6-pyrimidin-2-yl-pyrazolo[1,5-a]pyridin-4-yloxy)-phenyl]-amide], the IC50 lay in the range of 10 to 100 nM. As to `CCn1cc(C(=O)Nc2ccc(Oc3cc(-c4cnccn4)cn4nccc34)c(F)c2)c(=O)n(-c2ccc(F)cc2)c1=O` [Example 134, 1-Ethyl-3-(4-fluoro-phenyl)-2,4-dioxo-1,2,3,4-tetrahydro-pyrimidine-5-carboxylic acid[3-fluoro-4-(6-pyrazin-2-yl-pyrazolo[1,5-a]pyridin-4-yloxy)-phenyl]-amide], the IC50 is 10 to 100 nM. On the same count and under the same terms, the result for `CC(C)n1cc(C(=O)Nc2ccc(Oc3cc(-c4cnccn4)cn4nccc34)c(F)c2)c(=O)n(-c2ccc(F)cc2)c1=O` [Example 135, 3-(4-Fluoro-phenyl)-1-isopropyl-2,4-dioxo-1,2,3,4-tetrahydro-pyrimidine-5-carboxylic acid[3-fluoro-4-(6-pyrazin-2-yl-pyrazolo[1,5-a]pyridin-4-yloxy)-phenyl]-amide] reads 10 to 100 nM. As to `CCn1cc(C(=O)Nc2ccc(Oc3cc(-c4cccc(C)n4)cn4nccc34)c(F)c2)c(=O)n(-c2ccc(F)cc2)c1=O` [Example 136, 1-Ethyl-3-(4-fluoro-phenyl)-2,4-dioxo-1,2,3,4-tetrahydro-pyrimidine-5-carboxylic acid{3-fluoro-4-[6-(6-methyl-pyridin-2-yl)-pyrazolo[1,5-a]pyridin-4-yloxy]-phenyl}-amide], the IC50 lay within 10 to 100 nM. Regarding `Cc1cccc(-c2cc(Oc3ccc(NC(=O)c4cn(C(C)C)c(=O)n(-c5ccc(F)cc5)c4=O)cc3F)c3ccnn3c2)n1` [Example 137, 3-(4-Fluoro-phenyl)-1-isopropyl-2,4-dioxo-1,2,3,4-tetrahydro-pyrimidine-5-carboxylic acid{3-fluoro-4-[6-(6-methyl-pyridin-2-yl)-pyrazolo[1,5-a]pyridin-4-yloxy]-phenyl}-amide], the IC50 is 10 to 100 nM. As for `CC(C)n1cc(C(=O)Nc2ccc(Oc3cc(C(=O)N(C)C)cn4nccc34)c(F)c2)c(=O)n(-c2ccc(F)cc2)c1=O` [Example 138, 4-(2-Fluoro-4-{[3-(4-fluoro-phenyl)-1-isopropyl-2,4-dioxo-1,2,3,4-tetrahydro-pyrimidine-5-carbonyl]-amino}-phenoxy)-pyrazolo[1,5-a]pyridine-6-carboxylic acid dimethylamide], the IC50 is less than 10 nM.

On to `CCn1cc(C(=O)Nc2ccc(Oc3cc(C(=O)N(C)C)cn4nccc34)c(F)c2)c(=O)n(-c2ccc(F)cc2)c1=O` [Example 139, 4-(4-{[1-Ethyl-3-(4-fluoro-phenyl)-2,4-dioxo-1,2,3,4-tetrahydro-pyrimidine-5-carbonyl]-amino}-2-fluoro-phenoxy)-pyrazolo[1,5-a]pyridine-6-carboxylic acid dimethylamide], for which the IC50 was less than 10 nM.

On to `CCn1cc(C(=O)Nc2ccc(Oc3cc(NS(C)(=O)=O)cn4nccc34)c(F)c2)c(=O)n(-c2ccc(F)cc2)c1=O` [Example 140, 1-Ethyl-3-(4-fluoro-phenyl)-2,4-dioxo-1,2,3,4-tetrahydro-pyrimidine-5-carboxylic acid[3-fluoro-4-(6-methanesulfonylamino-pyrazolo[1,5-a]pyridin-4-yloxy)-phenyl]-amide], for which the IC50 lay in the range of 10 to 100 nM. On the same count and under the same terms, the result for `CC(C)n1cc(C(=O)Nc2ccc(Oc3cc(NS(C)(=O)=O)cn4nccc34)c(F)c2)c(=O)n(-c2ccc(F)cc2)c1=O` [Example 141, 3-(4-Fluoro-phenyl)-1-isopropyl-2,4-dioxo-1,2,3,4-tetrahydro-pyrimidine-5-carboxylic acid[3-fluoro-4-(6-methanesulfonylamino-pyrazolo[1,5-a]pyridin-4-yloxy)-phenyl]-amide] reads 10 to 100 nM; that for `CC(=O)Nc1cc(Oc2ccc(NC(=O)c3cn(C(C)C)c(=O)n(-c4ccc(F)cc4)c3=O)cc2F)c2ccnn2c1` [Example 143, 3-(4-Fluoro-phenyl)-1-isopropyl-2,4-dioxo-1,2,3,4-tetrahydro-pyrimidine-5-carboxylic acid[4-(6-acetylamino-pyrazolo[1,5-a]pyridin-4-yloxy)-3-fluoro-phenyl]-amide], less than 10 nM; that for `CCn1cc(C(=O)Nc2ccc(Oc3cc(NC(=O)N(C)C)cn4nccc34)c(F)c2)c(=O)n(-c2ccc(F)cc2)c1=O` [Example 146, 1-Ethyl-3-(4-fluoro-phenyl)-2,4-dioxo-1,2,3,4-tetrahydro-pyrimidine-5-carboxylic acid {4-[6-(3,3-dimethyl-urea)-pyrazolo[1,5-a]pyridin-4-yloxy]-3-fluoro-phenyl}-amide], less than 10 nM. With `CC(C)n1cc(C(=O)Nc2ccc(Oc3cc(NC(=O)N4CCN(C)CC4)cn4nccc34)c(F)c2)c(=O)n(-c2ccc(F)cc2)c1=O` [Example 150, 3-(4-Fluoro-phenyl)-1-isopropyl-2,4-dioxo-1,2,3,4-tetrahydro-pyrimidine-5-carboxylic acid(3-fluoro-4-{6-[(4-methyl-piperazine-1-carbonyl)-amino]-pyrazolo[1,5-a]pyridin-4-yloxy}-phenyl)-amide], the IC50 is 10 to 100 nM. Consider `Cn1cnc(-c2cc(Oc3ccc(Nc4ncccn4)cc3F)c3ccnn3c2)c1` [Example 152, {3-Fluoro-4-[6-(1-methyl-1H-imidazol-4-yl)-pyrazolo[1,5-a]pyridin-4-yloxy]-phenyl}-pyrimidin-2-yl-amine], for which the IC50 was 1000 to 10000 nM. Still for that read-out and setting: the result for `Cn1cnc(-c2cc(Oc3ccc(NS(=O)(=O)c4ccc(F)cc4)cc3F)c3ccnn3c2)c1` [Example 153, 4-Fluoro-N-{3-fluoro-4-[6-(1-methyl-1H-imidazol-4-yl)-pyrazolo[1,5-a]pyridin-4-yloxy]-phenyl}-benzenesulfonamide] reads 1000 to 10000 nM; that for `Cc1ccc(C(=O)Nc2ccc(Oc3cc(Br)cn4nccc34)c(F)c2)c(=O)n1-c1ccc(F)cc1` [Example 157, 1-(4-Fluoro-phenyl)-6-methyl-2-oxo-1,2-dihydro-pyridine-3-carboxylic acid [4-(6-bromo-pyrazolo[1,5-a]pyridin-4-yloxy)-3-fluoro-phenyl]-amide], 10 to 100 nM.

These data come from patent publication US9914731B2, “Pyrazolo[1,5-a]pyridine derivatives and methods of their use” (Ignyta, Inc., priority 2013, dated 2018).
